Reference: patent US8618169B2, “Derivatives of N-phenylanthranilic acid and 2-benzimidazolone as potassium channel and/or neuron activity modulators” (Ramot at Tel-Aviv University Ltd., priority 2002, dated 2013)

Experiments:
Assay type in all cases: cell-based
F-11 neuronal cells = assay: Spiking activity and membrane potential of F-11 neuronal cells, current-clamp; conditions: 10 μM
Experimental: F-11 neuronal cells were similarly cultured in F-12 Ham media containing 2 mM 1-glutamine supplemented with 10% fetal bovine serum, HAT supplement and antibiotics.
For current measurements in CHO cells, recordings were performed 40 hours following transfection, using the whole-cell configuration of the patch-clamp technique [Hamill et al., Nature 294: 462-464 (1981)]. Signals were amplified using an Axopatch 200B patch-clamp amplifier (Axon Instruments, Foster City, Calif., USA), sampled at 2 kHz and filtered at 800 Hz via a 4-pole Bessel low pass filter. Data were acquired using pClamp 8.1 software (Axon Instruments, Foster City, Calif., USA) and an Elonex Pentium III computer in conjunction with a DigiData 1322A interface (Axon Instruments, Foster City, Calif., USA). The patch pipettes were pulled from borosilicate glass (Warner Instrument. Corp., Hamden, Conn., USA) with a resistance of 2-5 MΩ and were filled with (in mM): 130 KCl, 1 MgCl2, 5 K2ATP, 5 EGTA, 10 HEPES, adjusted with KOH at pH 7.4 (290 mOsm). The external solution contained (in [mM]): 140 NaCl, 4 KCl, 1.8 CaCl2, 1.2 MgCl2, 11 glucose, 5.5 HEPES, adjusted with NaOH at pH 7.4 (310 mOsm). Series resistances (3-13 MΩ) were compensated (75-90%) and periodically monitored. For current-clamp measurements of rat cortical neurons, recordings were performed 10-14 days after plating, while rat DRG neurons recordings were performed 3 days after plating. The patch pipettes were filled with (in [mM]): 135 KCl, 1 K2ATP, 1 MgATP, 2 EGTA, 1.1 CaCl2, 5 glucose, 10 HEPES, adjusted with KOH at pH 7.4 (315 mOsm). The external solution contained (in [mM]): 140 NaCl, 4 KCl, 2 CaCl2, 2 MgCl2, 5 glucose, 10 HEPES, adjusted with NaOH at pH 7.4 (325 mOsm). For evoking the neuronal action potentials, 50-300 pA currents were injected into the cells for 800 ms (square pulse). Recordings were sampled at 5 kHz and filtered at 2 KHz via a 4-pole Bessel low pass filter. […]

COX (Cyclooxygenase) = assay: COX activity assay in C-26 cells (PGE2 radioimmunoassay)
Experimental: C-26 cells were plated on 24-well plates using RPMI medium. Different concentrations of the tested compound were added thereto and the cells were incubated for 30 minutes at 37° C. 30 μM exogenic arachidonic acid was then added and incubation was continued for 20 minutes (37° C.), so as to allow the cells to synthesize PGE2. Indomethacin was added thereafter (10 μM), to stop and completely block the activity. Then, the upper solution was removed into clean 24-wells. To the remained cells 100 μl NaOH (1M) were added to induce cytolysis, and the cells were left for later protein measurement. The solution removed to the new 24-well was used for a radioimmunoassay. The COX activity was estimated by calculating the ng PGE2/mg protein parameter.

homomeric KCNQ3 = target: T1, homomeric KCNQ3 (Homo sapiens, UniProt O43525); assay: Homomeric KCNQ3 channels expressed in CHO cells, patch-clamp; conditions: 50 μM
T1 construct: expressed in transfected cells; host or cells: CHO cells

KCNQ2/Q3 = KCNQ2/Q3 (Homo sapiens, UniProt O43525+O43526); assay: Opener potency on KCNQ2/Q3 by leftward shift of half-activation potential (ΔV50) versus concentration, Hill fit; set-up: expressed in transfected cells; conditions: compound alone

Row | SMILES | effect on spikes generated in F-11 cells (F-11 neuronal cells) | hyperpolarization of the membrane potential (F-11 neuronal cells) [mV] | membrane potential of the F-11 neuronal cell with compound (F-11 neuronal cells; FIG. 26, from −59 mV) [mV] | COX inhibition activity (in words) (COX (Cyclooxygenase)) | IC50 (COX (Cyclooxygenase); C-26 cells) [µM] | effect on COX activity (COX (Cyclooxygenase); concentration of up to 10 μM) | leftward shift of the activation curve of KCNQ3 channels (homomeric KCNQ3; CHO cells) [mV] | increase of KCNQ3 current amplitude (homomeric KCNQ3; stepped from −85 mV to −40 mV) [%] | τdeact of KCNQ3 with compound (homomeric KCNQ3; control 319.6±40.8 msec) [ms] | V50 of KCNQ3 activation with compound (homomeric KCNQ3; control −39.0±3.5 mV) [mV] | Hill coefficient ηH (KCNQ2/Q3; Hill fit) | EC50 (KCNQ2/Q3; Hill fit, read-out: EC50 of leftward shift of the half-activation potential (ΔV50)) [µM] | maximal left-shift of the half-activation potential (ΔV50) (KCNQ2/Q3) [mV]
1 | O=C(Cc1ccccc1Nc1c(Cl)cccc1Cl)NCCOCCO [Compound 6] | completely and reversibly blocks | 9±3 | −67 | do not exhibit COX inhibition activity | > 30 | did not block |  |  |  |  |  |  | 
2 | Cc1ccc(Cl)c(Nc2ccccc2C(=O)O)c1Cl [Compound 1, Meclofenamic acid] |  |  |  |  |  |  | −15 | 120±4 | 317.2 ± 30.2 | −54.0±2.0 | 2.1±0.5 | 25.7 ± 1.1 | −20±3
